# Reference: patent publication US8686143B2, “Compounds useful as inhibitors of Janus kinases” (Vertex Pharmaceuticals Incorporated, priority 2007, dated 2014)
# Target: T1, JAK3 (Homo sapiens, UniProt P52333)
# T1 sequence (P52333 1-1124): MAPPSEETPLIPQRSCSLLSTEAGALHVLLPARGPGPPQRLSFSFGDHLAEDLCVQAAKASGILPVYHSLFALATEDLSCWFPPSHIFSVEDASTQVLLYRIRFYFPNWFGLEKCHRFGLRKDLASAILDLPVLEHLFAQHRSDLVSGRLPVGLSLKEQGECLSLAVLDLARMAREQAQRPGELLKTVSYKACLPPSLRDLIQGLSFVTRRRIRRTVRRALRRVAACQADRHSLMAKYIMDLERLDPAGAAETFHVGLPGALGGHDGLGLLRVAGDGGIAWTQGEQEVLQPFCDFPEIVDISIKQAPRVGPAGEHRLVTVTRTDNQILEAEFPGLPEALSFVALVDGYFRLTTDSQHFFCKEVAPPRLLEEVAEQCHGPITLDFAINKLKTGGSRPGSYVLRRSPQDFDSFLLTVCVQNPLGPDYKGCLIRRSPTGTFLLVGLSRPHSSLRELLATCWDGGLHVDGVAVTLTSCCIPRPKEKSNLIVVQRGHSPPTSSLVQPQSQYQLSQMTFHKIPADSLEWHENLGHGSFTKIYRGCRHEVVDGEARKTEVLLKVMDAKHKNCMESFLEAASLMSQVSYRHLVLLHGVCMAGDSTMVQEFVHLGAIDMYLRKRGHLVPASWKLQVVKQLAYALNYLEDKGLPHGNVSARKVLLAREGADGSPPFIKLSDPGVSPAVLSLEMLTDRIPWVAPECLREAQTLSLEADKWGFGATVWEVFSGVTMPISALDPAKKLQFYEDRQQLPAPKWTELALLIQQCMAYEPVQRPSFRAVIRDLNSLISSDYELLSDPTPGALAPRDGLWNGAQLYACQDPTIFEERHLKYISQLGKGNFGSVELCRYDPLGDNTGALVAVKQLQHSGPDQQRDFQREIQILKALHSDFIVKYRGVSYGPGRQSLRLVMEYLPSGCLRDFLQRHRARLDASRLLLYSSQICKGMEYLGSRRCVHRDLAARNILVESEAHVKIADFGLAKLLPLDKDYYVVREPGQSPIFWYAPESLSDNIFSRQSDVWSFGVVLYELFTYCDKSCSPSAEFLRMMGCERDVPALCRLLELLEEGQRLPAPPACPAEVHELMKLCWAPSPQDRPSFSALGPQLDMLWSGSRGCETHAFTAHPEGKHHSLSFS
# Assay: JAK3 Inhibition Assay (33P incorporation into poly(Glu)4Tyr)
# Type: biochemical
# Conditions: for Ki: 1 nM JAK3, 5 μM ATP, 1 μM poly(Glu)4Tyr, 25° C.
# Description: Compounds were screened for their ability to inhibit JAK3 using the assay shown below. Reactions were carried out in a kinase buffer containing 100 mM HEPES (pH 7.4), 1 mM DTT, 10 mM MgCl2, 25 mM NaCl, and 0.01% BSA. Substrate concentrations in the assay were 5 μM ATP (200 uCi/μmole ATP) and 1 μM poly(Glu)4Tyr. Reactions were carried out at 25° C. and 1 nM JAK3.
# To each well of a 96 well polycarbonate plate was added 1.5 μl of a candidate JAK3 inhibitor along with 50 μlof kinase buffer containing 2 μM poly(Glu)4Tyr and 10 μM ATP. This was then mixed and 50 μl of kinase buffer containing 2 nM JAK3 enzyme was added to start the reaction. After 20 minutes at room temperature (25° C.), the reaction was stopped with 50 μl of 20% trichloroacetic acid (TCA) that also contained 0.4 mM ATP. The entire contents of each well were then transferred to a 96 well glass fiber filter plate using a TomTek Cell Harvester. After washing, 60 μl of scintillation fluid was added and ^33P incorporation detected on a Perkin Elmer TopCount.
SMILES,Ki [µM],inhibition of JAK3 at concentrations of 50 μM
COc1ccc(-c2nccc(N3CCC[C@@H]3C(=O)NCC(F)(F)F)n2)cn1 [Compound 62],–,did not inhibit
COc1ccc(-c2ncc(F)c(NC(C)(C)C(=O)NCC(F)(F)F)n2)cn1 [Compound 69],–,did not inhibit
COc1ccc(-c2nccc(N[C@@H](C(=O)NCC(F)(F)F)C(C)C)n2)cn1 [Compound 70],–,did not inhibit
CC(C)[C@@H](Nc1ccnc(-c2ccc3c(c2)OCO3)n1)C(=O)NCC(F)(F)F [Compound 71],10 to 50,–
CC(C)[C@@H](Nc1nc(-c2ccc3c(c2)OCO3)ncc1F)C(=O)NCC(F)(F)F [Compound 76],10 to 50,–
COc1ccc(-c2nccc(NC(C)(C)C(=O)NCC(F)(F)F)n2)cn1 [Compound 80],10 to 50,–
COc1ccc(-c2ncc(F)c(N[C@@H](C(=O)NCC(F)(F)F)C(C)C)n2)cn1 [Compound 81],–,did not inhibit
O=C(NCC(F)(F)F)[C@H]1CCCN1c1ccnc(-c2ccc(=O)[nH]c2)n1 [Compound 83],10 to 50,–
CC(C)(Nc1nc(-c2ccc(=O)[nH]c2)ncc1F)C(=O)NCC(F)(F)F [Compound 84],10 to 50,–
CC(C)[C@@H](Nc1ccnc(-c2ccc(=O)[nH]c2)n1)C(=O)NCC(F)(F)F [Compound 85],10 to 50,–
CC(C)[C@@H](Nc1nc(-c2ccc(=O)[nH]c2)ncc1F)C(=O)NCC(F)(F)F [Compound 87],–,did not inhibit
O=C(NCC(F)(F)F)[C@H]1CCCN1c1nc(-c2ccc3c(c2)OCO3)ncc1F [Compound 88],10 to 50,–
O=C(NCC(F)(F)F)[C@H]1CCCN1c1nc(-c2ccc3ncccc3c2)ncc1F [Compound 89],10 to 50,–
Nc1nc2ccc(-c3ncc(F)c(N4CCC[C@@H]4C(=O)NCC(F)(F)F)n3)cc2s1 [Compound 90],–,did not inhibit
COc1ccc(-c2ncc(F)c(N3CCC[C@@H]3C(=O)NCC(F)(F)F)n2)cn1 [Compound 91],–,did not inhibit
CC(=O)Nc1nc2ccc(-c3ncc(F)c(N4CCC[C@@H]4C(=O)NCC(F)(F)F)n3)cc2s1 [Compound 92],–,did not inhibit
CC(C)(Nc1nc(-c2c[nH]c(C(=O)NCc3ccccc3)c2)ncc1F)C(=O)NCC(F)(F)F [Compound 95],–,did not inhibit
CC(C)NC(=O)c1cc(-c2ncc(F)c(NC(C)(C)C(=O)NCC(F)(F)F)n2)c[nH]1 [Compound 96],10 to 50,–
CC(C)(Nc1ccnc(-c2c[nH]c(C(=O)NCc3ccccc3)c2)n1)C(=O)NCC(F)(F)F [Compound 99],10 to 50,–
CC(C)NC(=O)c1cc(-c2nccc(NC(C)(C)C(=O)NCC(F)(F)F)n2)c[nH]1 [Compound 100],10 to 50,–
CNC(=O)c1cc(-c2ncc(F)c(N[C@@H](C(=O)NCC(F)(F)F)C(C)C)n2)c[nH]1 [Compound 103],10 to 50,–
CC(C)NC(=O)c1cc(-c2ncc(F)c(N[C@@H](C(=O)NCC(F)(F)F)C(C)C)n2)c[nH]1 [Compound 105],–,did not inhibit
CC(C)C(Nc1nc(-c2c[nH]c(C(=O)NCC3CC3)c2)ncc1F)C(=O)NCC(F)(F)F (centres unmarked) [Compound 106],10 to 50,–
CC(C)NC(=O)c1cc(-c2nccc(N[C@@H](C(=O)NCC(F)(F)F)C(C)C)n2)c[nH]1 [Compound 111],–,did not inhibit

# More lines, now with the values ahead:
Ki [µM],inhibition of JAK3 at concentrations of 50 μM,SMILES
≤ 1,–,Nc1ccc(Nc2nc(N)n(-c3ncc(F)c(N4CCCC4C(=O)NCC(F)(F)F)n3)n2)cc1 (centres unmarked) [Compound 56]
1 to 10,–,Nc1cccc(Nc2nc(N)n(-c3ncc(F)c(N4CCCC4C(=O)NCC(F)(F)F)n3)n2)c1 (centres unmarked) [Compound 57]
1 to 10,–,COc1ccc(Nc2nc(N)n(-c3ncc(F)c(NCC(=O)NCC(F)(F)F)n3)n2)cc1 [Compound 58]
1 to 10,–,O=C(NCC(F)(F)F)[C@H]1CCCN1c1ccnc(-c2ccc3c(c2)OCO3)n1 [Compound 59]
1 to 10,–,O=C(NCC(F)(F)F)[C@H]1CCCN1c1ccnc(-c2ccc3ncccc3c2)n1 [Compound 60]
1 to 10,–,Nc1nc2ccc(-c3nccc(N4CCC[C@@H]4C(=O)NCC(F)(F)F)n3)cc2s1 [Compound 61]
10 to 50,–,CC(=O)Nc1nc2ccc(-c3nccc(N4CCC[C@@H]4C(=O)NCC(F)(F)F)n3)cc2s1 [Compound 63]
1 to 10,–,CC(=O)Nc1nc2ccc(-c3ncc(F)c(NC(C)(C)C(=O)NCC(F)(F)F)n3)cc2s1 [Compound 64]
1 to 10,–,CC(=O)Nc1nc2ccc(-c3nccc(N[C@@H](C(=O)NCC(F)(F)F)C(C)C)n3)cc2s1 [Compound 65]
1 to 10,–,CC(C)(Nc1nc(-c2ccc3nc(N)sc3c2)ncc1F)C(=O)NCC(F)(F)F [Compound 66]
1 to 10,–,CC(C)(Nc1nc(-c2ccc3c(c2)OCO3)ncc1F)C(=O)NCC(F)(F)F [Compound 67]
≤ 1,–,CC(C)(Nc1nc(-c2ccc3ncccc3c2)ncc1F)C(=O)NCC(F)(F)F [Compound 68]
1 to 10,–,CC(C)[C@@H](Nc1ccnc(-c2ccc3ncccc3c2)n1)C(=O)NCC(F)(F)F [Compound 72]
1 to 10,–,CC(C)[C@@H](Nc1ccnc(-c2ccc3nc(N)sc3c2)n1)C(=O)NCC(F)(F)F [Compound 73]
≤ 1,–,CC(C)(Nc1ccnc(-c2ccc3c(c2)OCO3)n1)C(=O)NCC(F)(F)F [Compound 74]
≤ 1,–,CC(C)(Nc1ccnc(-c2ccc3ncccc3c2)n1)C(=O)NCC(F)(F)F [Compound 75]

Ki [µM],inhibition of JAK3 at concentrations of 50 μM,SMILES
1 to 10,–,CC(C)[C@@H](Nc1nc(-c2ccc3ncccc3c2)ncc1F)C(=O)NCC(F)(F)F [Compound 77]
1 to 10,–,CC(C)[C@@H](Nc1nc(-c2ccc3nc(N)sc3c2)ncc1F)C(=O)NCC(F)(F)F [Compound 78]
1 to 10,–,CC(C)(Nc1ccnc(-c2ccc3nc(N)sc3c2)n1)C(=O)NCC(F)(F)F [Compound 79]
1 to 10,–,CC(=O)Nc1nc2ccc(-c3nccc(NC(C)(C)C(=O)NCC(F)(F)F)n3)cc2s1 [Compound 82]
1 to 10,–,CC(C)(Nc1ccnc(-c2ccc(=O)[nH]c2)n1)C(=O)NCC(F)(F)F [Compound 86]
1 to 10,–,CCNC(=O)c1cc(-c2ncc(F)c(NC(C)(C)C(=O)NCC(F)(F)F)n2)c[nH]1 [Compound 93]
1 to 10,–,CC(C)(Nc1nc(-c2c[nH]c(C(=O)NC3CC3)c2)ncc1F)C(=O)NCC(F)(F)F [Compound 94]
≤ 1,–,CC(C)(Nc1nc(-c2c[nH]c(C(=O)N3CCCC3)c2)ncc1F)C(=O)NCC(F)(F)F [Compound 97]
1 to 10,–,CC(C)(Nc1ccnc(-c2c[nH]c(C(=O)NC3CC3)c2)n1)C(=O)NCC(F)(F)F [Compound 98]
≤ 1,–,CC(C)(Nc1ccnc(-c2c[nH]c(C(=O)N3CCCC3)c2)n1)C(=O)NCC(F)(F)F [Compound 101]
≤ 1,–,CC(C)(Nc1ccnc(-c2c[nH]c(C(=O)N3CC=CC3)c2)n1)C(=O)NCC(F)(F)F [Compound 102]
1 to 10,–,CC(C)[C@@H](Nc1nc(-c2c[nH]c(C(=O)NCc3ccccc3)c2)ncc1F)C(=O)NCC(F)(F)F [Compound 104]
1 to 10,–,CC(C)C(Nc1nc(-c2c[nH]c(C(=O)N3CCCC3)c2)ncc1F)C(=O)NCC(F)(F)F (centres unmarked) [Compound 107]
≤ 1,–,CC(C)C(Nc1nc(-c2c[nH]c(C(=O)N3CC=CC3)c2)ncc1F)C(=O)NCC(F)(F)F (centres unmarked) [Compound 108]
1 to 10,–,CNC(=O)c1cc(-c2nccc(N[C@@H](C(=O)NCC(F)(F)F)C(C)C)n2)c[nH]1 [Compound 109]
1 to 10,–,CC(C)[C@@H](Nc1ccnc(-c2c[nH]c(C(=O)NCc3ccccc3)c2)n1)C(=O)NCC(F)(F)F [Compound 110]
